Values of other authors in PMC11187573, “Identification of SARS-CoV-2 Mpro inhibitors through deep reinforcement learning for de novo drug design and computational chemistry approaches” (RSC Medicinal Chemistry, 2024).

Test system: SARS, SARS-CoV-2 and MERS Mpro
Settings: Origin COVID_Moonshot; ref COVID Moonshot; cited from earlier work

Structure (SMILES)	IC50 [nM]
CC(C)C[C@@H]1CN(C(=O)CCl)CCN1Cc1cccc(Cl)c1 [DAN-LON-a5fc619e-3, CC(C)C[C@H](C1)N(Cc2cccc(Cl)c2)CCN1C(CCl)=O]	784
O=C(CCl)N1CC2CC1CN2Cc1cccc(Cl)c1 (stereo not drawn) [DAN-LON-a5fc619e-8, O=C(CCl)N1C(C2)CN(Cc3cccc(Cl)c3)C2C1]	2170
CCNc1ncc(C#N)cc1CN1CCN(C(=O)CCl)CC1 [DAR-DIA-fb20be43-4, CCNc(nc1)c(CN(CC2)CCN2C(CCl)=O)cc1C#N]	3220
N#Cc1cc(CN2CCN(C(=O)CCl)CC2)c2ccccc2c1 [DAR-DIA-fb20be43-6, N#Cc1cc2ccccc2c(CN(CC2)CCN2C(CCl)=O)c1]	4610
COc1cc(CN2CCN(C(=O)CCl)CC2)c2ccccc2c1 [DAR-DIA-fb20be43-7, COc1cc2ccccc2c(CN(CC2)CCN2C(CCl)=O)c1]	2750
CC(NC(=O)CCl)c1cc(Cl)cc(-c2ccc(S(N)(=O)=O)cc2)c1 (stereo not drawn) [DAV-CRI-14a23e73-1, CC(c1cc(Cl)cc(-c(cc2)ccc2S(N)(=O)=O)c1)NC(CCl)=O]	466
O=C(Nc1cccnc1)N(CCC1CCCCC1)c1cccc(Cl)c1 [JOR-UNI-2fc98d0b-12, O=C(Nc1cnccc1)N(CCC1CCCCC1)c1cccc(Cl)c1]	3060
O=C(NCc1ccc2c(c1)OCO2)c1nc(S(=O)(=O)Cc2ccccc2)ncc1Cl [LON-WEI-4d77710c-10, O=C(c(nc(nc1)S(Cc2ccccc2)(=O)=O)c1Cl)NCc(cc1)cc2c1OCO2]	1400
O=S(=O)(Nc1ccccc1SCc1cccc(Cl)c1F)c1cc(Cl)sc1Cl [LON-WEI-4d77710c-64, O=S(c(cc(s1)Cl)c1Cl)(Nc(cccc1)c1SCc1cccc(Cl)c1F)=O]	2230
O=[N+]([O-])c1cnc(Sc2nnc(-c3ccc(Cl)cc3)o2)s1 [LON-WEI-4d77710c-67, [O-][N+](c1cnc(Sc2nnc(-c(cc3)ccc3Cl)o2)s1)=O]	881
CCOC(=O)c1ccc(NC(=O)CC2SC(=O)N(c3ccccc3)C2=O)cc1 (stereo not drawn) [LON-WEI-4d77710c-74, CCOC(c(cc1)ccc1NC(CC(C(N1c2ccccc2)=O)SC1=O)=O)=O]	2400
Cc1ccccc1NC(=O)CC1SC(=O)N(c2ccccc2)C1=O (stereo not drawn) [LON-WEI-4d77710c-75, Cc(cccc1)c1NC(CC(C(N1c2ccccc2)=O)SC1=O)=O]	443
O=C(CCl)N1CCN(S(=O)(=O)c2c(F)cccc2F)CC1 [LON-WEI-8f408cad-2, O=C(CCl)N(CC1)CCN1S(c(c(F)ccc1)c1F)(=O)=O]	3280
O=C(CCl)N1CCN(S(=O)(=O)c2cccs2)CC1 [LON-WEI-8f408cad-3, O=C(CCl)N(CC1)CCN1S(c1cccs1)(=O)=O]	2160
O=C(CCl)N1CCN(Cc2ccsc2)CC1 [LON-WEI-8f408cad-7, O=C(CCl)N1CCN(Cc2cscc2)CC1]	3500
C=CC(=O)N(c1ccc(C(C)(C)C)cc1)C(C(=O)NCCc1cccc(F)c1)c1cccnc1 (stereo not drawn) [LON-WEI-adc59df6-47, CC(C)(C)c(cc1)ccc1N(C(C(NCCc1cccc(F)c1)=O)c1cnccc1)C(C=C)=O]	2960
CS(=O)(=O)c1ncc(Cl)c(C(=O)Nc2ccccc2Cc2ccccc2)n1 [LON-WEI-ff7b210a-4, CS(c(nc1)nc(C(Nc2c(Cc3ccccc3)cccc2)=O)c1Cl)(=O)=O]	503

Structure (SMILES)	IC50 [nM]
CCOC(=O)c1nc(S(C)(=O)=O)ncc1Cl [LON-WEI-ff7b210a-5, CCOC(c(nc(nc1)S(C)(=O)=O)c1Cl)=O]	1600
O=C(CCl)N1CCN(S(=O)(=O)C2=CC[SH]=C2)CC1 [MAK-UNK-d4768348-1, O=C(CCl)N(CC1)CCN1S(C1=CCS=C1)(=O)=O]	1630
COc1ccc(C2CC(c3cccs3)=NN2C(=O)CCl)cc1OC (stereo not drawn) [MAT-POS-916a2c5a-1, COc(ccc(C(C1)N(C(CCl)=O)N=C1c1cccs1)c1)c1OC]	1870
O=C(CCl)N1CCN(Cc2cccc(Cl)c2)CC1 [MED-COV-4280ac29-15, O=C(CCl)N1CCN(Cc2cccc(Cl)c2)CC1]	2840
COc1ccc(C2CC(c3ccccc3)=NN2C(=O)CCl)cc1OC (stereo not drawn) [MED-COV-4280ac29-30, COc(ccc(C(C1)N(C(CCl)=O)N=C1c1ccccc1)c1)c1OC]	543
COCc1cc(Cl)cc(CN2CCN(C(=O)CCl)CC2)c1 [MED-COV-4280ac29-33, COCc1cc(CN(CC2)CCN2C(CCl)=O)cc(Cl)c1]	4770
COCCc1ccc(Cl)cc1CN1CCN(C(=O)CCl)CC1 [MED-COV-4280ac29-37, COCCc(cc1)c(CN(CC2)CCN2C(CCl)=O)cc1Cl]	2200
NS(=O)(=O)CCc1ccccc1CN1CCN(C(=O)CCl)CC1 [MIH-UNI-e573136b-5, NS(CCc1c(CN(CC2)CCN2C(CCl)=O)cccc1)(=O)=O]	2720
COc1ccc2c(c1)CN(C(=O)CCl)C(c1ccccc1)C2 (stereo not drawn) [NAU-LAT-64f4b287-4, COc1cc(CN(C(C2)c3ccccc3)C(CCl)=O)c2cc1]	3740
Cc1cc(Cl)cc(CC2CCN(C(=O)CCl)CC2)c1 [NIR-THE-0d6461ce-8, Cc1cc(Cl)cc(CC(CC2)CCN2C(CCl)=O)c1]	3570
N#Cc1cccc(C2CN(C(=O)CCl)Cc3ccccc32)c1 (stereo not drawn) [NIR-THE-c331be7a-2, N#Cc1cccc(C(CN(C2)C(CCl)=O)c3c2cccc3)c1]	1170
Cc1cccc(C2CN(C(=O)CCl)Cc3ccccc32)c1 (stereo not drawn) [NIR-THE-c331be7a-6, Cc1cccc(C(CN(C2)C(CCl)=O)c3c2cccc3)c1]	2000
O=C(CCl)N1CCN(Cc2cc(Cl)cc(Cl)c2)CC1 [PAU-UNI-8cdd41c7-1, O=C(CCl)N1CCN(Cc2cc(Cl)cc(Cl)c2)CC1]	1890
O=C(CCl)N1CCN(C(c2ccccc2)c2ccccc2)CC1 [SIM-SYN-f15aaa3a-1, O=C(CCl)N(CC1)CCN1C(c1ccccc1)c1ccccc1]	1980
Cc1cc(C(=O)CCl)c(C)n1CC1COc2ccccc2O1 (stereo not drawn) [TAT-ENA-80bfd3e5-32, Cc1cc(C(CCl)=O)c(C)n1CC1Oc(cccc2)c2OC1]	2820
Cc1ccncc1NC(=O)Cc1cc(Cl)cc(OC2CC(=O)N2)c1 (stereo not drawn) [TRY-UNI-2eddb1ff-7, Cc(ccnc1)c1NC(Cc1cc(Cl)cc(OC(C2)NC2=O)c1)=O]	3610

Same assay, conditions: Origin ChEMBL; ref ChEMBL; cited from earlier work

Structure (SMILES)	IC50 [nM]
COCCCOc1ccnc(C[S+]([O-])c2nc3ccccc3[nH]2)c1C (stereo not drawn) [CHEMBL1200930, Cc(c(C[S+](c1nc(cccc2)c2[n-]1)[O-])ncc1)c1OCCCOC]	740
C[C@@](Cc1ccc(O)c(O)c1)(NN)C(=O)O [CHEMBL1201236, C[C@](Cc(cc1)cc(O)c1O)(C(O)=O)NN]	3550
Oc1cc2c(cc1O)[C@H]1c3ccccc3CN[C@@H]1CC2 [CHEMBL1256832, Oc(cc(CC[C@H]([C@@H]12)NCc3c2cccc3)c1c1)c1O]	1050
O=C1C(Cl)=C(N2CCOCC2)C(=O)N1c1ccc(Cl)c(Cl)c1 [CHEMBL1271993, O=C(C(N1CCOCC1)=C(C1=O)Cl)N1c(cc1)cc(Cl)c1Cl]	2840
CCC(=O)OCN1C(=O)C=CC1=O [CHEMBL1374426, CCC(OCN(C(C=C1)=O)C1=O)=O]	290
CCOc1cc(C(Nc2cc(C)ccn2)c2ccc3cccnc3c2O)ccc1OC (stereo not drawn) [CHEMBL1397952, CCOc(cc(C(c(ccc1cccnc11)c1O)Nc1nccc(C)c1)cc1)c1OC]	270
CCN1CCN(C(c2ccc(C(F)(F)F)cc2)c2ccc3cccnc3c2O)CC1 (stereo not drawn) [CHEMBL1422849, CCN(CC1)CCN1C(c1ccc(C(F)(F)F)cc1)c(ccc1cccnc11)c1O]	150
O=C1C=CC(=O)C2=C1C1c3ccccc3C2c2ccccc21 [CHEMBL1474701, O=C(C=C1)C(C(c2c(C34)cccc2)c2c4cccc2)=C3C1=O]	240
COc1ccc2[nH]c([S+]([O-])Cc3ncc(C)c(OC)c3C)nc2n1 (stereo not drawn) [CHEMBL1475252, Cc1cnc(C[S+](c2nc(nc(cc3)OC)c3[nH]2)[O-])c(C)c1OC]	970
O=C(c1ccc(/C=C/c2n[nH]c3ccccc23)cc1)N1CCNCC1 [CHEMBL1908397, O=C(c1ccc(/C=C/c2n[nH]c3c2cccc3)cc1)N1CCNCC1]	3600
COc1cccc(C(=O)CCN[C@@H](C)[C@H](O)c2ccccc2)c1 [CHEMBL2354521, C[C@@H]([C@@H](c1ccccc1)O)NCCC(c1cc(OC)ccc1)=O]	2350
O=C1c2c(O)cc(O)cc2O[C@H](c2cc(O)c(O)c(O)c2)[C@H]1O [CHEMBL3348861, O[C@H]([C@@H](c(cc1O)cc(O)c1O)Oc1c2c(O)cc(O)c1)C2=O]	180
Oc1cc2c(cc1C(c1ccc(C(F)(F)F)cc1)N1CCOCC1)OCO2 (stereo not drawn) [CHEMBL3797437, Oc1c(C(c2ccc(C(F)(F)F)cc2)N2CCOCC2)cc2OCOc2c1]	540
CC=C1C(OC2OC(CO)C(O)C(O)C2O)OC=C(C(=O)OC)C1CC(=O)OCCc1ccc(O)c(O)c1 (stereo not drawn) [CHEMBL4303154, CC=C(C1CC(OCCc(cc2)cc(O)c2O)=O)C(OC(C(C2O)O)OC(CO)C2O)OC=C1C(OC)=O]	3380
C[C@@H]1O[C@@H](Oc2c(-c3cc(O)c(O)c(O)c3)oc3cc(O)cc(O)c3c2=O)[C@@H](O)[C@H](O)[C@H]1O [CHEMBL4303331, C[C@@H]([C@@H]([C@H]([C@@H]1O)O)O)O[C@H]1OC1=C(c(cc2O)cc(O)c2O)Oc(cc(cc2O)O)c2C1=O]	3660
Oc1cc(CNC(=S)/C=C/c2cc(O)c(O)c(Br)c2)cc(O)c1O [CHEMBL4303361, Oc1cc(CNC(/C=C/c(cc2O)cc(Br)c2O)=S)cc(O)c1O]	480
Cc1ccccc1N(C)C(=O)c1ccc([S+]([O-])c2nccs2)c([N+](=O)[O-])c1 (stereo not drawn) [CHEMBL4303376, Cc(cccc1)c1N(C)C(c(cc1)cc([N+]([O-])=O)c1[S+](c1nccs1)[O-])=O]	1870
C=C1C(=O)[C@]23[C@H](O)[C@H]1CC[C@@H]2[C@]12CO[C@]3(O)C[C@@H]1C(C)(C)CC[C@@H]2O [CHEMBL4303503, CC(C)(CC1)[C@@H](C[C@@]([C@@]([C@@H]2O)([C@@H]3CC[C@H]2C2=C)C2=O)(O)OC2)[C@@]23[C@H]1O]	2570
O=C1C=Cc2cc(Br)ccc2C1=O [CHEMBL4303595, O=C(C=Cc1c2ccc(Br)c1)C2=O]	100
CCc1ccc(/C=C/C(=O)Nc2ccc(C(C)=O)cc2)o1 [CHEMBL4303618, CCc1ccc(/C=C/C(Nc(cc2)ccc2C(C)=O)=O)o1]	4950
N#CSc1cc(SC#N)c(N)nc1N [CHEMBL4303622, Nc(c(SC#N)c1)nc(N)c1SC#N]	1360
